Test results as given in patent publication US8389482B2, “Short peptides useful for treatment of ischemia/reperfusion injury and other tissue damage conditions associated with nitric oxide and its reactive species” (New York University, priority 2007, dated 2013).
Residues, ends and D or L forms follow the SMILES beside them.

Experiments:
myocardial tissue 3-NT = conditions: cited from earlier work
[1] = system: myocardial ischemia (MI) in rats; conditions: cited from earlier work
[2] = system: rat model of myocardial infarction; test: Myocardial ischemia-reperfusion (MI/R) injury in a rat model of myocardial infarction, infarct size NA/AR; assay type: in vivo
Method: (§1) Myocardial ischemia (MI) was produced in anaesthetized adult male Wistar rats (300-350 grams) under controlled ventilation. After thoracotomy at the fourth intercostal space, the heart was exteriorized and a 6-0 silk ligature was passed under the left coronary artery with a needle. After 30 minutes of MI, the ligature was released and the myocardium was reperfused for 1 hour. Rats were randomized 5 minutes after the beginning of reperfusion to receive either vehicle (control, n=6) or L-CEFH peptide (0.7 mg/kg; n=9) i.v. The extent of MI/R injury, or infarct size, was determined by calculating the ratio of the area of necrosis (NA) to the area at risk (AR). Accumulation of 3-NT in the tested heart tissue corresponding to the area at risk was analyzed by Western dot-immunoblotting of total protein (extracted from the area at risk) with antibodies against 3-NT.
Rat model of myocardial infarction was generated as disclosed in Example 3, above. 0, 0.02, 0.05, 0.1, 0.14, 0.35, and 0.7 mg/kg of D-CEFH peptide (N≦4 for each concentration) were administered i.v. The extent of MI/R injury, or infarct size, was determined by calculating the ratio of the area of necrosis (NA) to the area at risk (AR).

[3] = system: 3-nitrotyrosine (3-NT) in myocardial tissue; test: 3-NT accumulation in heart tissue (area at risk) in a rat model of MI, dot-immunoblotting with anti-3-NT antibodies; assay type: in vivo; conditions: 0.7 mg/kg i.v. 5 minutes after beginning of reperfusion
Method: as §1

[4] = system: peroxynitrite (ONOO)-nitrated albumin; test: In vitro denitration of peroxynitrite-nitrated albumin, dot-immunoblotting with antibodies against 3-NT; assay type: biochemical; conditions: 20 μM peptide, 10 mM Tris HCl pH 7.2, 25° C., after 10 minutes
Text: Several groups have previously reported an in vivo denitration phenomenon (e.g., Kamisaki et al (1998) Proc Natl Acad Sci USA 95: 11584-11589; Aulak et al (2004) Am J Physiol Heart Circ Physiol 286: H30-H38). However, they tried to isolate denitration activity using pure 3-NT and failed. The present inventors have hypothesized that the stability of pure 3-NT is much higher than the stability of 3-NT incorporated in a protein and used ONOO-nitrated albumin as the substrate for detecting denitration activity.
To test the ability of L-CEFH peptide (Cys-Glu-Phe-His; SEQ ID NO: 1) to mediate 3-NT denitration in vitro, 20 μM CEFH peptide solution containing 10 mM Tris HCl pH 7.2 was added to albumin previously nitrated by peroxynitrite (ONOO^−). Denitration of the peroxynitrite (ONOO)-nitrated albumin following 0, 3, or 10 minutes of incubation with L-CEFH peptide was then visualized by dot-immunoblotting with antibodies against 3-NT.

HeLa cells = test: HeLa cell survival upon NO/ONOO- exposure, MTS-based assay; conditions: 20 μM peptide vs 5 mM cysteine
Method: The ability of the L-CEFH peptide (Cys-Glu-Phe-His; SEQ ID NO: 1) to reduce cell death caused by nitric oxide (NO) and peroxynitrite (ONOO^−) was tested in cell culture. Following treatment with NO/ONOO^−, HeLa cells were incubated with either a control buffer, 5 mM cysteine, or 20 μM L-CEFH peptide for 40 minutes. The percentage of cells surviving was determined by a MTS-based assay (available from Promega, Madison, Wis.).

[5] = 5 mg/kg i.v., infused 1 minute prior to ischemia

## O=NO [sodium nitrite]
Myocardial tissue 3-NT; [5]
  myocardial tissue 3-NT accumulation compared with saline treated controls: significant expansion
[1]; [5]
  I/R infarct size compared with saline treated controls: significant expansion

## COC(=O)[C@@H](N)CCCNC(=N)N[N+](=O)[O-] [L-NAME]
Myocardial tissue 3-NT; 50 mg/kg i.p.
  3-NT: reduction
[1]; 50 mg/kg i.p.
  infarct size: reduction

## Cys-Glu-Phe-His [D-CEFH]
[2]; 0.05 mg/kg vs 0.7 mg/kg, i.v.
  fold lower concentration than L-CEFH for the same effect in preventing MI/R injury: 14 fold
[2]; i.v., rat model of MI
  activity in preventing MI/R injury as compared to L-CEFH: superior activity
  dose producing maximal effect in preventing MI/R injury: 0.1 mg/kg
  dose producing the same effect as the maximal effect of L-CEFH (0.7 mg/kg): 0.05 mg/kg

## N[C@@H](CS)C(=O)N[C@@H](CCC(=O)O)C(=O)N[C@@H](Cc1ccccc1)C(=O)N[C@@H](Cc1c[nH]cn1)C(=O)O [L-CEFH, Cys-Glu-Phe-His] (H-CEFH-OH; N-terminus and C-terminus assumed)
[3]
  reduction of 3-NT accumulation as compared to the control: about 70%
[4]
  denitration of peroxynitrite (ONOO)-nitrated albumin: > 90%
[2]; 0.7 mg/kg i.v. 5 minutes after beginning of reperfusion, 30 min MI, 1 hour reperfusion
  decrease in the infarct size (NA/AR) as compared to the control: 3-5 fold
[2]; i.v., rat model of MI
  dose producing maximal effect in preventing MI/R injury: 0.7 mg/kg
HeLa cells
  times lower concentration than cysteine giving equivalent efficacy: 250 times
